Biological target: T1, p300 (Homo sapiens, UniProt Q09472)
T1 construct: gene EP300; fragment of p300 (aa 1815–1910), including the PHD, catalytic (HAT), ZZ and TAZ2 domains
T1 sequence (Q09472 1815-1910): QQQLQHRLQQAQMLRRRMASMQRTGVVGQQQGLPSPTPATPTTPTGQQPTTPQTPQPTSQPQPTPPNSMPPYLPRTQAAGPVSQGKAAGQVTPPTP
Test: HTRF tau acetylation assay with purified p300 core domain; confirmed by orthogonal MMBC assay and DSF binding
Assay type: biochemical

IC50: 35.3 µM
Structure (SMILES): Cc1cc2c(c(=S)[nH]1)C(=O)O/C2=C\c1ccco1 [compound 37892, SMDC37892]

Source: PMC6945522, “Promoting tau secretion and propagation by hyperactive p300/CBP via autophagy-lysosomal pathway in tauopathy” (Molecular Neurodegeneration, 2020)
